We go through six compounds from patent publication US20030207340A1, “Sequences encoding human neoplastic marker” (priority 2002, published 2003).

Experiment [1] deals with COS cells stably transfected with tNOX cDNA. Put plainly: Growth inhibition of COS cells transfected with tNOX cDNA. The experiment is classed as cell-based, African monkey. To be noted: for EC50: Primates, COS cells stably transfected with tNOX cDNA, growth inhibition; for change of growth response (susceptibility) by tNOX cDNA transfection: tNOX cDNA-transfected vs control COS cells. An excerpt:
Transient transfection of COS cells were with pcDNA3.1 (Invitrogen) and a Calcium Phosphate Transfection Kit (Invitrogen, Carlsbad, Calif.) according to the manufacturer's protocol. ttNOX cDNA was first amplified by PCR using primers 5═-[…]-3′ (forward; SEQ ID NO: 12) and 5′-[…]-3′ (reverse, SEQ ID NO: 13). The PCR product was then amplified using primers 5′-[…]-3′ (forward, SEQ ID NO: 14) and 5′-[…]-3′ (reverse, SEQ ID NO: 15) to construct a HindIII site at 5′ end of the nontemplate strand. The product was double digested using HindIII and BamHI enzymes. The digested products were separated on an agarose gel and extracted using a DNA Extraction Kit (Qiagen, Valencia, Calif.). The DNA was then ligated into a pcDNA3.1 vector that contains a cytomegalovirus enhancer-promoter for high levels of expression. For propagation of the plasmid DNA, the ligation product was used to transform XL-1 blue competent cells using heat pulse technique (Sambrook et al., 1989, supra). The positive clones were identified by PCR. The resulting plasmid was then used to transfect COS cells.
(§1) COS-1 cells (African monkey kidney cell line), were plated one day prior to transfection at 4×10^5 cells per 100-mm dish. Thirty-six μl of 2 M CaCl2 and 30 μg of pcDNA3.1 or pcDNA3.1-tNOX in 300 μl sterile H2O were slowly added dropwise into 300 μl of 2× Hepes Buffered Saline (HBS) at room temperature for 30 min. The transfection mixtures then were added dropwise to the media to the cells and incubated overnight at 37C. After overnight exposure to the DNA precipitate, the cells were washed twice with PBS and 3 ml of DMSO were added for 2.5 min. The DMSO then was removed and cells were fed with fresh media for 2-3 days. tNOX expression was evaluated on the basis of enzymatic activity and Western blot analysis. For selection of stable transfectants, antibiotic G418 sulfate was used (Invitrogen, Carlsbad, Calif.). After the COS cells were transfected with the tNOX cDNA expression plasmid, 0.5 mg/ml of G418 sulfate was added into the media twice a week and the cultures were maintained until colonies 2 to 3 mm in diameter were formed. A total of three colonies were selected and trypsinized individually and then transferred into wells of a 24-well plate and then into a 35 mm petri dish. Cells were harvested at 80% confluency. Transfections were confirmed by immunoblotting.

A further experiment relates to COS cells. Put plainly: Growth inhibition of control COS cells (nontransfected / vector alone). The experiment is classed as cell-based, African monkey. To be noted: for EC50: Primates, nontransfected COS cells, growth inhibition. On the procedure:
as §1

A further experiment has as its target T1, ttNOX (truncated tNOX) (Homo sapiens, UniProt Q16206).
T1 construct: made in house; host or cells: E. coli BL21 (DE3), vector pET-11b; crude induced bacterial extract
T1 sequence (Q16206 220-610): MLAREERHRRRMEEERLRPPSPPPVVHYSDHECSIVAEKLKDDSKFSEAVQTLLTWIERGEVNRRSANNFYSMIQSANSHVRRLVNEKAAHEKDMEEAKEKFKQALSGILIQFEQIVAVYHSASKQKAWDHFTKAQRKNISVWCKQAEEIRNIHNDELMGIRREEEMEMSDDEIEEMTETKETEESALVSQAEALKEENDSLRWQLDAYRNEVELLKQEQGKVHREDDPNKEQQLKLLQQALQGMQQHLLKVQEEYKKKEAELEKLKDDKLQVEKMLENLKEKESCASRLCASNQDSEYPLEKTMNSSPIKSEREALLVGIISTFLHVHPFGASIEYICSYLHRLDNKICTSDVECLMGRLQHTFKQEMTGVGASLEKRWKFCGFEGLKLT
The experiment can be described thus: NADH oxidase activity of ttNOX expressed in E. coli (induced bacterial extract). The experiment is classed as biochemical. An excerpt: tNOX cDNA from clone 1 was expressed in E. coli either as a truncated form (ttNOX) (beginning at M220), as a fusion protein with six histidine residues (ttNOX-his) fused to the amino terminus of ttNOX, or as a processed tNOX (beginning at G327). First, the open reading frame of ttNOX DNA and nucleotides of 3′-untranslated region were amplified by PCR, digested with NdeI and BamHI followed by ligation into the protein expression vector pET-11b. All primers were synthesized by the Laboratory for Macromolecular Structure (Purdue University, IN). Primers for PCR amplification of ttNOX were 5′-[…]-3′ (forward, SEQ ID NO: 6) and 5′[…]-3′ (reverse, SEQ ID NO: 7). Primers for processed form of tNOX were 5′-[…]-3′ (forward, SEQ ID NO: 8) and 5′-[…]-3′ (reverse, SEQ ID NO: 9). Primers for histidine-tagged ttNOX were 5′-[…]-3′ (forward, SEQ ID NO: 10) and 5′-[…]-3′ (reverse, SEQ ID NO: 11). The forward primer was designed to incorporate six histidine residues to the amino terminus of tNOX protein. The amplification performed was with an initiation step of 94C. for 90 sec, followed by 90 sec of denaturation at 94C., 90 sec of annealing at 55C., and 90 sec of extension at 72C. for 29 cycles.
E. coli [BL21 (DE3)] were transfected and grown in LB medium containing ampicillin (100 μg/ml) for 16 hr at 25C. and harvested. DNA sequences of the ligation products were confirmed by DNA sequencing. Expressions of all forms of tNOX were confirmed by SDS-PAGE with silver staining and immunoblotting. Immunoblot analysis was with anti-tNOX monoclonal antibody. Detection used alkaline […] conjugated anti-mouse antibody.

For experiment [2], the system named is plasma membranes prepared from HeLa cells. The conditions noted are these: cited from earlier work.
The next experiment has as its target T2, tNOX (Homo sapiens, UniProt Q16206).
T2 sequence (Q16206 1-610): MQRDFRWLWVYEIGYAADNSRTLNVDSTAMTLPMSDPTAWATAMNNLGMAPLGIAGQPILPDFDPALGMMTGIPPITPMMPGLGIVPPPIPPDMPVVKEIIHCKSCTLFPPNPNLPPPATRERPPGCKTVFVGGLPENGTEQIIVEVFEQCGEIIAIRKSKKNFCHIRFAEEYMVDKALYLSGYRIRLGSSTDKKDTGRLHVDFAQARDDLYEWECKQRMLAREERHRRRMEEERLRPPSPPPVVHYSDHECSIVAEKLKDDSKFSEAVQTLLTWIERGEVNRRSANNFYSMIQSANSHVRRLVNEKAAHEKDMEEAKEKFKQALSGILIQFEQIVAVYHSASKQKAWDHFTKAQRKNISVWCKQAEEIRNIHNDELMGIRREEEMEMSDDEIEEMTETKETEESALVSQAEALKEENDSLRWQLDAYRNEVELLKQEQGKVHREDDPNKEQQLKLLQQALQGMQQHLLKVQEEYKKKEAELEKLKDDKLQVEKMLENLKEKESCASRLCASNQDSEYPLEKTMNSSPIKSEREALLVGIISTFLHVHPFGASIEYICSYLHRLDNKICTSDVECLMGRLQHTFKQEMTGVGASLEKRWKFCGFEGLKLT
The conditions noted are these: cited from earlier work.

The next experiment has as its system CNOX. The conditions noted are these: cited from earlier work.

By EC50 is commonly meant the concentration needed to bring the measured effect to its halfway point. For `COc1cc(CNC(=O)CCCC/C=C/C(C)C)ccc1O` [Capsaicin, 8-methyl-N-vanillyl-6-noneamide], in experiment [1], the half-maximal effective concentration (EC50) is 1300 nM and the “change of growth response (susceptibility) by tNOX cDNA transfection” value (shortened to “change of growth response”) is reported as “more susceptible”. In the experiment on COS cells, this compound registered a concentration giving a half-maximal response (EC50) of 13000 nM. Also, the “inhibition of the activity of the bacterially expressed protein” value at ttNOX (truncated tNOX) is “complete”. In addition, the “periodic NADH oxidase activity of induced bacterial extracts” value on ttNOX (truncated tNOX) (in the presence of 1 or 100 μM capsaicin) was “no periodic activity”.
`Cc1ccc(S(=O)(=O)NC(=O)Nc2ccc(Cl)cc2)cc1` [LY181984, N-(4-methylphenylsulfonyl)-N′-(4-chlorophenyl)urea]: the EC50 in experiment [1] is 3000 nM; with COS cells, 20000 nM. The “inhibition of NADH oxidase activity of induced bacterial extract” value on ttNOX (truncated tNOX) (1 μM) is recorded as “completely inhibited”. In experiment [2], the “oxygen uptake by HeLa plasma membranes” value is “inhibited”.
Take `Cc1ccc(S(=O)(=O)NC(=O)Nc2ccccc2)cc1` [LY181985, N-(4-methylphenylsulfonyl)-N′-(4-phenyl)urea]: the growth inhibition entry (in experiment [1] (cells transfected with tNOX cDNA); in the experiment on COS cells (control cells transfected with vector alone)) was “did not inhibit” each time.
For `CN(Cc1cnc2nc(N)nc(N)c2n1)c1ccc(C(=O)N[C@@H](CCC(=O)O)C(=O)O)cc1` [Methotrexate, methotrexate], the EC50 (in experiment [1]; in the experiment with COS cells) was 1000 nM each time. Further, the “change of growth response” value in experiment [1] was “unaffected”.
In the case of (−)-epigallocatechin gallate [EGCg], the “change of growth response” value in experiment [1] is listed as “more susceptible”. In addition, the “effect on activity of tNOX” value at tNOX was “inhibits”. The “effect on constitutive CNOX” value in the experiment on CNOX is “largely without effect”.
With `COc1cccc2c1C(=O)c1c(O)c3c(c(O)c1C2=O)C[C@@](O)(C(=O)CO)C[C@@H]3O[C@H]1C[C@H](N)[C@H](O)[C@H](C)O1` [Adriamycin, adriamycin], the results for the concentration giving a half-maximal response (EC50) (in experiment [1]; with COS cells) were 40 nM and 300 nM, respectively.
